{
  "source": "patent US8377974B2",
  "about": "(Millennium Pharmaceuticals, Inc., priority 2004, dated 2013)",
  "data": [
    {"target": "T1, human plasma protein factor Xa (Homo sapiens, UniProt P00742)", "T1 construct": "measure proteolytic activity of the enzyme (factor Xa); purchased Haematologic Technologies (Essex Junction, Vt.); host or cells: human plasma", "T1 sequence (P00742 235-488 limits assumed)": "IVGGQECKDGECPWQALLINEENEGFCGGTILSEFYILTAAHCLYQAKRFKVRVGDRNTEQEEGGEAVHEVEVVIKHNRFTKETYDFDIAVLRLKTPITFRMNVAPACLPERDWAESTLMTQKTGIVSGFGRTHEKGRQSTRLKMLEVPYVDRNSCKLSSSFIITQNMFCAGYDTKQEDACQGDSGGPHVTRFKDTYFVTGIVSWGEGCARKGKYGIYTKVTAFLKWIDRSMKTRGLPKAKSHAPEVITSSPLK", "T1 sequence (P00742 41-179 partner limits assumed)": "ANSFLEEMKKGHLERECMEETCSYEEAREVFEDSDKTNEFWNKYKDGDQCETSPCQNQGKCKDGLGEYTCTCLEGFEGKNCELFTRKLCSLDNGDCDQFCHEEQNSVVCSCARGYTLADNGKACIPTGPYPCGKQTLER", "test": "Factor Xa IC50 determination: cleavage of paranitroanilide substrate S-2765 in 96-well plates", "type": "biochemical", "conditions": "fXa 1 nM, S-2765 100 μM, Tris buffered saline pH 7.4, room temperature", "in_short": "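Initial rates of S-2765 (100 μM final) cleavage, read at 405 nm for 2 min, fitted with a four-parameter equation to give IC50. Enzyme: 1 nM human plasma fXa, 5 min room-temperature preincubation with inhibitor (0.01 nM–10 μM) in 20 mM Tris, 150 mM NaCl, 5 mM CaCl2, 0.1% BSA, 5% DMSO, pH 7.4; duplicates.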", "units": {"IC50": "nM"}, "values": [
      {"smiles": "Cc1cccn(-c2ccc(-n3cc(CNC(=O)c4ccc(Cl)s4)nn3)cc2)c1=O", "note": "[Example 293, 5-Chloro-N-((1-(4-(3-methyl-2-oxopyridin-1(2H)-yl)phenyl)-1H-1,2,3-triazol-4-yl)methyl)thiophene-2-carboxamide]", "IC50": "≤ 100"},
      {"smiles": "C[C@@H](NC(=O)c1ccc(Cl)s1)c1cc(-c2ccc(C(=N)N3CCCCC3)cc2)no1", "note": "[Example 52, (R)-5-Chloro-thiophene-2-carboxylic acid (1-{3-[4-(imino-piperidin-1-yl-methyl)-phenyl]-isoxazol-5-yl}-ethyl)-amide]", "IC50": "≥ 500"},
      {"smiles": "N=C(c1ccc(-c2nc(CNC(=O)c3ccc(Cl)s3)cs2)cc1)N1CCCCC1", "note": "[Example 353, 5-Chloro-N-((2-(4-(imino(piperidin-1-yl)methyl)phenyl)thiazol-4-yl)methyl)thiophene-2-carboxamide]", "IC50": "100 to 500"},
      {"smiles": "N=C(c1ccc(-c2nc(CNC(=O)c3ccc(Cl)s3)co2)cc1)N1CCCC1", "note": "[Example 340, 5-Chloro-N-((2-(4-(imino(pyrrolidin-1-yl)methyl)phenyl)oxazol-4-yl)methyl)thiophene-2-carboxamide]", "IC50": "≤ 100"},
      {"smiles": "O=C(NCC1CC(c2ccc(Nc3ccncc3)cc2)=NO1)c1ccc(Cl)s1", "note": "(stereo not drawn) [Example 226, 5-Chloro-thiophene-2-carboxylic acid {3-[4-(pyridin-4-ylamino)-phenyl]-4,5-dihydro-isoxazol-5-ylmethyl}-amide]", "IC50": "≤ 100"},
      {"smiles": "C[C@H](NC(=O)c1ccc(Cl)s1)c1cc(-c2ccc(C3=NCCN3C)cc2)no1", "note": "[Example 54, (S)-5-Chloro-thiophene-2-carboxylic acid (1-{3-[4-(1-methyl-4,5-dihydro-1H-imidazol-2-yl)-phenyl]-isoxazol-5-yl}-ethyl)-amide]", "IC50": "≥ 500"},
      {"smiles": "CSc1cc(C(=N)N2CCCCC2)ccc1C1=NOC(CNC(=O)c2ccc(Cl)s2)C1", "note": "(stereo not drawn) [Example 139, 5-Chloro-thiophene-2-carboxylic acid {3-[4-(imino-piperidin-1-yl-methyl)-2-methylsulfanyl-phenyl]-4,5-dihydro-isoxazol-5-ylmethyl}-amide]", "IC50": "≤ 100"},
      {"smiles": "CCN(C)C(=N)c1ccc(-c2nc(CNC(=O)c3ccc(Cl)s3)co2)cc1", "note": "[Example 343, N-((2-(4-(N-Ethyl-N-methylcarbamimidoyl)phenyl)oxazol-4-yl)methyl)-5-chlorothiophene-2-carboxamide]", "IC50": "100 to 500"},
      {"smiles": "N=C(c1ccc(-n2cc(CNC(=O)c3ccc(Cl)s3)nn2)c(F)c1)N1CCC1", "note": "[Example 321, N-((1-(4-(Azetidin-1-yl(imino)methyl)-2-fluorophenyl)-1H-1,2,3-triazol-4-yl)methyl)-5-chlorothiophene-2-carboxamide]", "IC50": "≤ 100"},
      {"smiles": "O=C(NCc1cc(-c2ccc(-c3cccc(CN4CCCC4)c3)cc2)no1)c1ccc(Cl)s1", "note": "[Example 212, 5-Chloro-thiophene-2-carboxylic acid [3-(3′-pyrrolidin-1-ylmethyl-biphenyl-4-yl)-isoxazol-5-ylmethyl]-amide]", "IC50": "≥ 500"},
      {"smiles": "CN(c1ccncc1)c1ccc(-c2cc(CNC(=O)c3ccc(Cl)s3)on2)cc1", "note": "[Example 255, 5-Chloro-thiophene-2-carboxylic acid {3-[4-(methyl-pyridin-4-yl-amino)-phenyl]-isoxazol-5-ylmethyl}-amide]", "IC50": "≥ 500"},
      {"smiles": "O=C(NCC1CC(c2ccc(N3CCCC3=O)cc2)=NO1)c1ccc(Cl)s1", "note": "(stereo not drawn) [Example 240, 5-Chloro-thiophene-2-carboxylic acid {3-[4-(2-oxo-pyrrolidin-1-yl)-phenyl]-4,5-dihydro-isoxazol-5-ylmethyl}-amide]", "IC50": "≤ 100"},
      {"smiles": "N=C(c1ccccc1)N1CCC(c2cc(CNC(=O)c3ccc(Cl)s3)on2)CC1", "note": "[Example 181, 5-Chloro-thiophene-2-carboxylic acid {3-[1-(imino-phenyl-methyl)-piperidin-4-yl]-isoxazol-5-ylmethyl}-amide]", "IC50": "≥ 500"},
      {"smiles": "CN1CCN=C1c1ccc(-c2cncc(CNC(=O)c3ccc(Cl)s3)c2)cc1", "note": "[Example 370, 5-Chloro-N-((5-(4-(1-methyl-4,5-dihydro-1H-imidazol-2-yl)phenyl)pyridin-3-yl)methyl)thiophene-2-carboxamide]", "IC50": "≤ 100"},
      {"smiles": "COCCN(C)Cc1ccccc1-c1ccc(C2=NOC(CNC(=O)c3ccc(Cl)s3)C2)cc1", "note": "(stereo not drawn) [Example 198, 5-Chloro-thiophene-2-carboxylic acid [3-(2′-{[(2-methoxy-ethyl)-methyl-amino]-methyl}-biphenyl-4-yl) 4,5-dihydro-isoxazol-5-ylmethyl]-amide]", "IC50": "≤ 100"},
      {"smiles": "COc1ccc(Oc2cc(C3=NCCN3C)ccc2-c2cc(CNC(=O)c3ccc(Cl)s3)on2)cc1", "note": "[Example 134, 5-Chloro-thiophene-2-carboxylic acid {3-[2-(4-methoxy-phenoxy)-4-(1-methyl-4,5-dihydro-1H-imidazol-2-yl)-phenyl]-isoxazol-5-ylmethyl}-amide]", "IC50": "≤ 100"},
      {"smiles": "CN1CCN=C1c1ccc(C2=NOC(CNC(=O)c3ccc(Cl)s3)C2)c(OC2CCCCC2)c1", "note": "(stereo not drawn) [Example 116, 5-Chloro-thiophene-2-carboxylic acid {3-[2-cyclohexyloxy-4-(1-methyl-4,5-dihydro-1H-imidazol-2-yl)-phenyl]-4,5-dihydro-isoxazol-5-ylmethyl}-amide]", "IC50": "≤ 100"},
      {"smiles": "CN1CCN=C1c1ccc(-n2cc(CNC(=O)c3ccc(Cl)s3)nn2)c(F)c1", "note": "[Example 324, 5-Chloro-N-((1-(2-fluoro-4-(1-methyl-4,5-dihydro-1H-imidazol-2-yl)phenyl)-1H-1,2,3-triazol-4-yl)methyl)thiophene-2-carboxamide]", "IC50": "≤ 100"},
      {"smiles": "N=C(c1ccc(-c2cc(CNC(=O)c3ccc(Cl)s3)no2)cc1)N1CCCCC1", "note": "[Example 333, 5-Chloro-N-((5-(4-(imino(piperidin-1-yl)methyl)phenyl)isoxazol-3-yl)methyl)thiophene-2-carboxamide]", "IC50": "≤ 100"},
      {"smiles": "CC1(CNC(=O)c2ccc(Cl)s2)CC(c2ccc(Cl)cc2)=NO1", "note": "(stereo not drawn) [Example 154, 5-Chloro-thiophene-2-carboxylic acid [3-(4-chloro-phenyl)-5-methyl-4,5-dihydro-isoxazol-5-ylmethyl]-amide]", "IC50": "≥ 500"},
      {"smiles": "CN1CCN=C1c1ccc(-n2cc(CNC(=O)c3ccc(Cl)s3)cn2)cc1", "note": "[Example 326, 5-Chloro-N-((1-(4-(1-methyl-4,5-dihydro-1H-imidazol-2-yl)phenyl)-1H-pyrazol-4-yl)methyl)thiophene-2-carboxamide]", "IC50": "≤ 100"},
      {"smiles": "CC(C)Oc1cc(C(=N)N2CCCC2)ccc1C1=NOC(CNC(=O)c2ccc(Cl)s2)C1", "note": "(stereo not drawn) [Example 111, 5-Chloro-thiophene-2-carboxylic acid {3-[4-(imino-pyrrolidin-1-yl-methyl)-2-isopropoxy-phenyl]-4,5-dihydro-isoxazol-5-ylmethyl}-amide]", "IC50": "≤ 100"},
      {"smiles": "COc1cccn(-c2ccc(C3=NOC(CNC(=O)c4ccc(Cl)s4)C3)cc2)c1=O", "note": "(stereo not drawn) [Example 282, 5-Chloro-N-((3-(4-(3-methoxy-2-oxopyridin-1(2H)-yl)phenyl)-4,5-dihydroisoxazol-5-yl)methyl)thiophene-2-carboxamide]", "IC50": "≤ 100"},
      {"smiles": "CNC(=N)c1ccc(-c2cc(CNC(=O)c3ccc(Cl)s3)on2)cc1", "note": "[Example 34, 5-Chloro-thiophene-2-carboxylic acid {3-[4-(N-methylcarbamimidoyl)-phenyl]-isoxazol-5-ylmethyl}-amide]", "IC50": "≥ 500"},
      {"smiles": "COCCN(C)c1cc(C(=N)N2CCCC2)ccc1C1=NOC(CNC(=O)c2ccc(Cl)s2)C1", "note": "(stereo not drawn) [Example 88, 5-Chloro-thiophene-2-carboxylic acid (3-{4-(imino-pyrrolidin-1-yl-methyl)-2-[(2-methoxy-ethyl)-methyl-amino]-phenyl}-4,5-dihydro-isoxazol-5-ylmethyl)-amide]", "IC50": "100 to 500"},
      {"smiles": "O=C(NCc1cc(-c2ccc(Cl)cc2)no1)c1ccc(Cl)s1", "note": "[Example 155, 5-Chloro-thiophene-2-carboxylic acid [3-(4-chloro-phenyl)-isoxazol-5-ylmethyl]-amide]", "IC50": "≥ 500"},
      {"smiles": "O=C(NCC1CC(c2ccc(N3CCOCCC3=O)cc2F)=NO1)c1ccc(Cl)s1", "note": "(stereo not drawn) [Example 249, 5-Chloro-thiophene-2-carboxylic acid {3-[2-fluoro-4-(5-oxo-[1,4]oxazepan-4-yl)-phenyl]-4,5-dihydro-isoxazol-5-ylmethyl}-amide]", "IC50": "≥ 500"},
      {"smiles": "CCOc1cc(C(=N)N(C)C)ccc1-c1cc(CNC(=O)c2ccc(Cl)s2)on1", "note": "[Example 122, 5-Chloro-thiophene-2-carboxylic acid {3-[4-(N,N-dimethyl-carbamimidoyl)-2-ethoxy-phenyl]-isoxazol-5-ylmethyl}-amide]", "IC50": "≤ 100"},
      {"smiles": "COc1ccc(C2=NOC(C)(CNC(=O)c3ccc(Cl)s3)C2)cc1", "note": "(stereo not drawn) [Example 151, 5-Chloro-thiophene-2-carboxylic acid [3-(4-methoxy-phenyl)-5-methyl-4,5-dihydro-isoxazol-5-ylmethyl]-amide]", "IC50": "≥ 500"},
      {"smiles": "C#CCN(C)C(=N)c1ccc(-c2nc(CNC(=O)c3ccc(Cl)s3)cs2)cc1", "note": "[Example 357, N-((2-(4-(N-Methyl-N-(prop-2-ynyl)carbamimidoyl)phenyl)thiazol-4-yl)methyl)-5-chlorothiophene-2-carboxamide]", "IC50": "≥ 500"},
      {"smiles": "COc1cc(C2=NCCN2C)ccc1-c1cc(CNC(=O)c2ccc(Cl)s2)on1", "note": "[Example 119, 5-Chloro-thiophene-2-carboxylic acid {3-[2-methoxy-4-(1-methyl-4,5-dihydro-1H-imidazol-2-yl)-phenyl]-isoxazol-5-ylmethyl}-amide]", "IC50": "≤ 100"},
      {"smiles": "O=C(NCC1CC(c2ccc(N3CCOCC3)cc2)=NO1)c1ccc(Cl)s1", "note": "(stereo not drawn) [Example 234, 5-Chloro-thiophene-2-carboxylic acid [3-(4-morpholin-4-yl-phenyl)-4,5-dihydro-isoxazol-5-ylmethyl]-amide]", "IC50": "≥ 500"},
      {"smiles": "CN(C)C(=N)c1ccc(C2=NOC(CNC(=O)c3ccc(Cl)s3)C2)c(OC2CCCC2)c1", "note": "(stereo not drawn) [Example 112, 5-Chloro-thiophene-2-carboxylic acid {3-[2-cyclopentyloxy-4-(N,N-dimethyl-carbamimidoyl)-phenyl]-4,5-dihydro-isoxazol-5-ylmethyl}-amide]", "IC50": "≤ 100"}
    ]}
  ]
}
